How the values were obtained:
[1] = target: T1, human NPY4 receptor (hY4R) (Homo sapiens, UniProt P50391); experiment: HTRF cAMP Gi assay, hY4R; type: cell-based; details: CHO-K1 cells
T1 construct: expressed in transfected cells; host or cells: CHO-K1
Protocol: (§1) Briefly, the production of intracellular cAMP will generate a competition between unlabeled cAMP and exogenously added d2-cAMP for anti-cAMP antibodies conjugated to cryptate. CHO-K1 cells stably expressing the human NPY1, NPY2, NPY4 and NPY5 receptors were used with the cells brought to life from a frozen stock immediately before assay performance. 2000 cells per well were applied for all four NPY receptor subtype assays. A 384-well format was used applying a total volume of 20 μl using 5 μl cells, 2.5 μl peptide agonist, 2.5 μl forskolin and 5 μl of each of the fluorophores. […] Concentration-response evaluation of compounds was performed with 11 concentrations of agonist peptides (covering 3 decades). EC50 values were calculated by nonlinear regression using sigmoid concentration-response with variable slope.

[2] = target: T2, Human Neuropeptide Y2 Receptor (Homo sapiens, UniProt P49146); experiment: Activity (RLB binding) after incubation in solutions at different pH values
T2 construct: purchased CHEMICON HTS066M
T2 sequence (P49146 1-381): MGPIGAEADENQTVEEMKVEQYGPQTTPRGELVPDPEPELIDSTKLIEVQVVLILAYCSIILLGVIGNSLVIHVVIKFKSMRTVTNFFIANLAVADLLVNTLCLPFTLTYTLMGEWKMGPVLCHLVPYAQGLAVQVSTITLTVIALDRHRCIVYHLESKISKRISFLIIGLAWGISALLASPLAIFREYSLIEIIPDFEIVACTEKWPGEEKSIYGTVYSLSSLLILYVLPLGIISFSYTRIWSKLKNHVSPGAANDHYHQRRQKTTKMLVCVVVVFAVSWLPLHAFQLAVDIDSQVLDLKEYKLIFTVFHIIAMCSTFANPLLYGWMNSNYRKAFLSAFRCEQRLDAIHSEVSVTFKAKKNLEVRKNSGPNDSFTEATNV
Protocol: The filtration RLB assay was carried out in 96-well plates in a final volume of 100 μl per well. Freeze-dried test peptides were dissolved in 100% dimethyl sulfoxide (DMSO) to stock solutions of 1 mM and serial dilutions were performed in assay buffer (50 mM HEPES, 5 mM MgCl2, 1 mM CaCl2, pH 7.4) containing 0.2% ovalbumin. […] Next, 80 μL membranes (HTS066M, ChemiSCREEN™ Human Neuropeptide Y2 Receptor Membrane Preparation, CHEMICON) were added to each well to give a final protein concentration of 0.5 μg/well. The plates were sealed and incubated at room temperature for 2 hours in a plate shaker set at 400 rpm. The incubation was stopped by vacuum filtration onto 0.5% polyethylene amine (PE) presoaked GF/C filters using a 96-well FilterMate™ harvester (Perkin Elmer) followed by four washes with 300 μl/well ice-cold wash buffer (50 mM HEPES, 500 mM NaCl, pH7.4). Filter plates were then dried for 60 min at room temperature and the bottom of the plates was sealed with backing tape UniFilter-96. Finally, 50 μl/well scintillation counter cocktail (Microscint20, Packard) was added and the radioactivity was counted in the Packard TopCount NXT scintillation counter. IC50 values (the half maximal inhibitory concentration of the agonist) were calculated by nonlinear regression analysis of sigmoidal dose-response curves.
The peptide was (partially) dissolved by shaking the filter unit horizontally at approx. 400 rpm for 2 hours at room temperature. The sample was filtered to remove any insoluble particles.

[3] = target: T3, human NPY5 receptor (hY5R) (Homo sapiens, UniProt Q15761); experiment: HTRF cAMP Gi assay, hY5R
T3 sequence (Q15761 1-445): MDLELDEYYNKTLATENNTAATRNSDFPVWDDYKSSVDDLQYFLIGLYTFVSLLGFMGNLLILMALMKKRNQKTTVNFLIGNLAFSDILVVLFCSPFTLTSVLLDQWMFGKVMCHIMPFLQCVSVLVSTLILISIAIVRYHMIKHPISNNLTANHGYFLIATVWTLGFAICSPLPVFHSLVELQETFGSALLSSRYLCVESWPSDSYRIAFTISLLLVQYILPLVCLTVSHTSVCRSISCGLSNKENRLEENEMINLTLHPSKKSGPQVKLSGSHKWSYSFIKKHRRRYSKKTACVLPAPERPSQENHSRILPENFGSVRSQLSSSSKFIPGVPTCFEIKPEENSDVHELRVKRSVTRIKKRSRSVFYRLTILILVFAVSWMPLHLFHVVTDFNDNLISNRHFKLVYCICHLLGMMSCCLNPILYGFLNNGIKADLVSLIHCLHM

Solubility determination = details: for Sol6: pH 6; for Sol7: pH 7
Method in brief: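 Sample: TFA-salt peptide at 10 mg/ml target in 0.1 M Na diphosphate, pH 6.4 or 7.0, shaken 2 h RT, filtered, diluted to 1 mg/ml.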

[4] = target: T4, human NPY1 receptor (hY1R) (Homo sapiens, UniProt P25929); experiment: HTRF cAMP Gi assay, hY1R; type: cell-based; details: CHO-K1 cells
T4 construct: expressed in transfected cells; host or cells: CHO-K1
T4 sequence (P25929 1-384): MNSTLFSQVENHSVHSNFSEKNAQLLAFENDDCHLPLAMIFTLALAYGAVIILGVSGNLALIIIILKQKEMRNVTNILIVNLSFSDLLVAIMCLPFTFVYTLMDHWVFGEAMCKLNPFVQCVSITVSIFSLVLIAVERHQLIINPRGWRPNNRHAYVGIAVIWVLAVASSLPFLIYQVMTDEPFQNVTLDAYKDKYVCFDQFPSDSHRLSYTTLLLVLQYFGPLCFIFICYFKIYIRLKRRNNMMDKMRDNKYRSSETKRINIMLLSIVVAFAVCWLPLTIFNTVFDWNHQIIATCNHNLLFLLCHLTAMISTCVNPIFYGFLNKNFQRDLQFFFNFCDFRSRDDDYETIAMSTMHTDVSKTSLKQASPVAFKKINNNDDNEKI
Protocol: as §1

[5] = target: T5, human NPY2 receptor (hY2R) (Homo sapiens, UniProt P49146); experiment: HTRF cAMP Gi assay, hY2R
T5 sequence (P49146 1-381): T2 sequence (P49146 1-381)
Source text: The Homogenous Time Resolved fluorescence (HTRF) technology optimized for Gi coupled receptors has thoroughly been described in Cisbio cAMP Gi kit manual. Briefly, the production of intracellular cAMP will generate a competition between unlabeled cAMP and exogenously added d2-cAMP for anti-cAMP antibodies conjugated to cryptate. CHO-K1 cells stably expressing the human NPY1, NPY2, NPY4 and NPY5 receptors were used with the cells brought to life from a frozen stock immediately before assay performance. 2000 cells per well were applied for all four NPY receptor subtype assays. A 384-well format was used applying a total volume of 20 μl using 5 μl cells, 2.5 μl peptide agonist, 2.5 μl forskolin and 5 μl of each of the fluorophores. […] Concentration-response evaluation of compounds was performed with 11 concentrations of agonist peptides (covering 3 decades). EC50 values were calculated by nonlinear regression using sigmoid concentration-response with variable slope.

[6] = target: T2, Human Neuropeptide Y2 Receptor; experiment: Radioligand binding competition assay (RLB)
Method in brief: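 IC50 values come from sigmoidal dose-response fits of scintillation counts after peptides competed for radioligand binding at receptor membranes (0.5 μg protein/well). Incubation ran 2 h at room temperature in HEPES buffer, pH 7.4, with Mg2+, Ca2+ and 0.2% ovalbumin.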

[7] = apparent Ki of filtrate after incubation at pH7.1-7.2, assumed 10 mg/ml, read-out: RLB 7 (pH7.1-7.2)
[8] = apparent Ki of filtrate after incubation at pH8.1-8.2, assumed 10 mg/ml, read-out: RLB 8 (pH8.1-8.2)
[9] = Table 3, 125I-PYY(1-36) competition, read-out: Ki

T1 sequence (P50391 whole entry): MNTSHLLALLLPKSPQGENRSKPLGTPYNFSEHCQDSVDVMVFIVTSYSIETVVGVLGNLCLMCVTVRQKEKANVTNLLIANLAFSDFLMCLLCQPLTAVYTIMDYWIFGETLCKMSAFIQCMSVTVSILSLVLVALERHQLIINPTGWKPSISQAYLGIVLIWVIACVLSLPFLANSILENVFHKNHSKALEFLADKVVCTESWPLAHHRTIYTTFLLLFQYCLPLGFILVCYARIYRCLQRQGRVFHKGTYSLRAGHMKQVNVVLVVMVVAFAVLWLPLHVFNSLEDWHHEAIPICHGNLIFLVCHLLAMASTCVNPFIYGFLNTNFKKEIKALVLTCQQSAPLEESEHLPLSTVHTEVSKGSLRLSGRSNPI

Row | Structure (SMILES) | EC50 [1] | Ki [2, 7] | Ki [2, 8] | EC50 [3] | Sol6 (Solubility determination) | Sol7 (Solubility determination) | EC50 [4] | EC50 [5] | Ki [6, 9] | Ki ([2]; apparent Ki of filtrate after incubation at pH6.1-6.2, assumed 10 mg/ml, read-out: RLB 6 (pH6.1-6.2)) | Ki ([6]; Table 8, DMSO stock, read-out: hY2R RLB Ki (nM) DMSO)
1 | CC[C@H](C)[C@H](NC(=O)[C@H](Cc1ccc(O)cc1)NC(=O)[C@H](Cc1ccc(O)cc1)NC(=O)[C@H](CCCNC(=N)N)NC(=O)[C@H](CCC(N)=O)NC(=O)[C@@H](NC(=O)[C@H](CCC(=O)O)NC(=O)[C@H](CCC(=O)O)NC(=O)[C@@H]1CCCN1C(=O)[C@H](CO)NC(=O)[C@H](C)NC(=O)[C@H](CC(=O)O)NC(=O)[C@H](C)NC(=O)[C@H](CCC(=O)O)NC(=O)[C@@H]1CCCN1C(=O)[C@H](CCCCNC(=O)CCCCCNC(=O)CC[C@H](NC(=O)CCCCCCCCCCCCCCCCC(=O)O)C(=O)O)NC(=O)[C@H](CCC(=O)O)NC(=O)[C@@H]1CCCN1C(=O)[C@H](C)NC(=O)CC(C)C)[C@@H](C)CC)C(=O)N[C@@H](C)C(=O)N[C@@H](CC(C)C)C(=O)N[C@@H](CCCNC(=N)N)C(=O)N[C@@H](Cc1c[nH]cn1)C(=O)N[C@@H](Cc1ccc(O)cc1)C(=O)N[C@@H](Cc1ccc(O)cc1)C(=O)N[C@@H](CC(N)=O)C(=O)N[C@@H](Cc1c[nH]c2ccccc12)C(=O)N[C@@H](CC(C)C)C(=O)N[C@H](C(=O)N[C@@H](CCCNC(=N)N)C(=O)N[C@@H](CCC(N)=O)C(=O)N[C@@H](CCCNC(=N)N)C(=O)N[C@@H](Cc1ccc(O)cc1)C(N)=O)[C@@H](C)O [Compound 40, N{alpha-4}-(3-methylbutanoyl)-N{epsilon-7}-(6-[(4S)-4-carboxy-4-(17-carboxyheptadecanamido)butanamido]hexanoyl)[4A,7K,9E,10A,17I,18Q,22I,23A,28Y,30W,31L]-hPYY(4-36)] | > 5000 nM | 7.3 nM | 3.8 nM | > 5000 nM | 8.5 mg/mL | 8.2 mg/mL | > 5000 nM |  |  |  | 
2 | CC(C)CC(=O)N[C@@H](C)C(=O)N1CCC[C@H]1C(=O)N[C@@H](CCC(=O)O)C(=O)N[C@@H](CCCCNC(=O)CCCCCNC(=O)CC[C@H](NC(=O)CCCCCCCCCCCCCCCCC(=O)O)C(=O)O)C(=O)N1CCC[C@H]1C(=O)N[C@@H](CCC(=O)O)C(=O)N[C@@H](C)C(=O)N[C@@H](CC(=O)O)C(=O)N[C@@H](C)C(=O)N[C@@H](CO)C(=O)N1CCC[C@H]1C(=O)N[C@@H](CCC(=O)O)C(=O)N[C@@H](CCC(=O)O)C(=O)N[C@@H](CC(C)C)C(=O)N[C@@H](CCC(N)=O)C(=O)N[C@@H](CCCNC(=N)N)C(=O)N[C@@H](Cc1ccc(O)cc1)C(=O)N[C@@H](Cc1ccc(O)cc1)C(=O)N[C@H](C(=O)N[C@@H](C)C(=O)N[C@@H](CC(C)C)C(=O)N[C@@H](CCCNC(=N)N)C(=O)N[C@@H](Cc1c[nH]cn1)C(=O)N[C@@H](Cc1ccc(O)cc1)C(=O)N[C@@H](Cc1ccc(O)cc1)C(=O)N[C@@H](CC(N)=O)C(=O)N[C@@H](Cc1c[nH]c2ccccc12)C(=O)N[C@@H](CC(C)C)C(=O)N[C@H](C(=O)N[C@@H](CCCNC(=N)N)C(=O)N[C@@H](CCC(N)=O)C(=O)N[C@@H](CCCNC(=N)N)C(=O)N[C@@H](Cc1ccc(O)cc1)C(N)=O)[C@@H](C)O)C(C)C [Compound 163, N{alpha-4}-(3-methylbutanoyl)-N{epsilon-7}-(6-[(4S)-4-carboxy-4-(17-carboxyheptadecanamido)butanamido]hexanoyl)-[4A,7K,9E,10A,18Q,22V,23A,28Y,30W,31L]-hPYY(4-36)] | > 5000 nM |  | 4.9 nM | > 5000 nM | 8.9 mg/mL | 9.2 mg/mL | > 5000 nM | 0.13 nM | 0.67 nM |  | 
3 | CC[C@H](C)[C@H](NC(=O)[C@H](CCC(=O)O)NC(=O)[C@H](CCC(=O)O)NC(=O)[C@@H]1CCCN1C(=O)[C@@H](NC(=O)[C@H](C)NC(=O)[C@H](CC(=O)O)NC(=O)[C@H](CCC(=O)O)NC(=O)[C@H](CCC(=O)O)NC(=O)[C@@H]1CCCN1C(=O)[C@H](CCCCNC(=O)CCCCCNC(=O)CC[C@H](NC(=O)CCCCCCCCCCCCCCCCC(=O)O)C(=O)O)NC(=O)[C@H](CCC(=O)O)NC(=O)[C@@H]1CCCN1C(=O)[C@H](C)NC(=O)CC(C)C)[C@@H](C)O)C(=O)N[C@@H](CCC(N)=O)C(=O)N[C@@H](CCCNC(=N)N)C(=O)N[C@@H](Cc1ccc(O)cc1)C(=O)N[C@@H](Cc1ccc(O)cc1)C(=O)N[C@H](C(=O)N[C@@H](CO)C(=O)N[C@@H](CC(C)C)C(=O)N[C@@H](CCCNC(=N)N)C(=O)N[C@@H](Cc1c[nH]cn1)C(=O)N[C@@H](Cc1ccc(O)cc1)C(=O)N[C@@H](Cc1ccc(O)cc1)C(=O)N[C@@H](CC(N)=O)C(=O)N[C@@H](Cc1c[nH]c2ccccc12)C(=O)N[C@@H](CC(C)C)C(=O)N[C@H](C(=O)N[C@@H](CCCNC(=N)N)C(=O)N[C@@H](CCC(N)=O)C(=O)N[C@@H](CCCNC(=N)N)C(=O)N[C@@H](Cc1ccc(O)cc1)C(N)=O)[C@@H](C)O)C(C)C [Compound 176, N{alpha-4}-(3-methylbutanoyl)-N{epsilon-7}-(6-[(4S)-4-carboxy-4-(17-carboxyheptadecanamido)butanamido]hexanoyl)-[4A,7K,9E,13T,17I,18Q,22V,28Y,30W,31L]-hPYY(4-36)] | > 5000 nM | 4 nM | 5.7 nM | > 5000 nM | 9.4 mg/mL | 9.3 mg/mL | > 5000 nM |  | 1.48 nM | 3.9 nM | 8.7 nM

— patent publication US12391737B2, “Soluble NPY2 receptor agonists” (Boehringer Ingelheim International GmbH, priority 2020, dated 2025)
